Data reported in publication PMC5642598, “Histone deacetylase inhibitor thailandepsin-A activates Notch signaling and suppresses neuroendocrine cancer cell growth in vivo” (Oncotarget, 2017).

Target: T1, HDAC1 (Homo sapiens, UniProt Q13547)
T1 construct: HDAC1-NanoLuc fusion protein
Assay: NanoBRET target engagement in live TT cells, competitive displacement of HDAC Tracer-01
Format: cell-based
From the text: NanoBRET target engagement in live TT cells, competitive displacement of HDAC Tracer-01 on HDAC1 | TDP-A dose-dependently attenuated BRET from intracellular HDAC1-NanoLuc fusion protein (Figure 1B) in low nanomolar concentrations

T1 sequence (Q13547 whole entry, the tested form may be a part): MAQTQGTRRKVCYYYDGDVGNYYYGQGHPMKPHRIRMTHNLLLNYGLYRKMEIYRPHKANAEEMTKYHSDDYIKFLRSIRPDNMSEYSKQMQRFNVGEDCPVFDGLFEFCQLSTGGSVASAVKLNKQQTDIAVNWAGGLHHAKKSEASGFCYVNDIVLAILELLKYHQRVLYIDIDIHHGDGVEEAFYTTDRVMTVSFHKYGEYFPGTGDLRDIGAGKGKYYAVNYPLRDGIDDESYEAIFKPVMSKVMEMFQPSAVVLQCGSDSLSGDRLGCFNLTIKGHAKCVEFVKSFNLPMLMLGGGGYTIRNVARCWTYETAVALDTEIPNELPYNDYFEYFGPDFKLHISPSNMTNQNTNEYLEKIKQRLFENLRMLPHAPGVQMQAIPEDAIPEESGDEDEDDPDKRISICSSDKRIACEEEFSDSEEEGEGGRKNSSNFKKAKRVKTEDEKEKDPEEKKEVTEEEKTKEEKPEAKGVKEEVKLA

## CC[C@H](C)[C@H]1NC(=O)[C@H]2CSSCC/C=C/[C@H](CC(=O)N[C@H](CCSC)C(=O)N2)OC(=O)C[C@@H]1O [TDP-A, thailandepsin A]
  EC50: 6.8 nM
